In US20250171461A1, “STIMULATOR OF INTERFERON GENES (STING) MODULATORS, AND COMPOSITIONS AND METHODS THEREOF” (Geode Therapeutics Inc., priority 2022, published 2025):
pIC50: −log10 of the molar value.

Columns and labels:
hERG channel = target: T1, hERG channel (Homo sapiens, UniProt Q12809); assay: hERG safety evaluation, manual whole cell patch clamp in hERG-expressing HEK 293 cells; type: cell-based; settings: hERG stably expressed HEK 293 cells, tail current, whole cell recording
T1 construct: host or cells: HEK 293
Protocol: (1) hERG stably expressed HEK 293 cell line (#60187) was purchased from BPS Bioscience and P3-P20 were used for the study. Cells were cultured in medium containing: 90% MEM, 10% FBS, 0.1 mM NEAA, 100 U/mL Penicillin-Streptomycin, 1 mM Na pyruvate and 500 μg/mL Geneticin. Cells are split about three times a week, and maintained between ˜40% to ˜80% confluence. 24 to 48 hours prior to recordings, the cells were plated on 0.05 mg/mL PDL pre-coated glass cover slips placed in 48-well plate at 1×10^4 cells. (2) The number of cells being plated on the cover slip should reach a confluence rate at which majority of the cells are single. (1) Test compounds were initially prepared in DMSO with final concentration of 10 mM as stock solution. (2) Compound was first made into 10, 3, 1, 0.3 and 0.1 mM DMSO stock, then serial diluted into the desired test concentrations in the extracellular solution (ECs). 30 uM test solution was diluted from 10 mM DMSO stock. The final DMSO concentration was in range of 0.1-0.3%. HEKA EPC 10 USB patch clamp amplifier (from HEKA Elektronik, Germany) was used in the whole cell recording. A cover slip with plenty of single HEK293 hERG cells on the surface was removed and placed into a continuously perfused (approximately 1 ml/minute) recording chamber mounted on an inverted microscope. HERG channel currents were recorded from single cells using standard whole cell recording techniques. The cells were voltage clamped at a holding potential of −80 mV. Then hERG current was activated by depolarizing at +30 mV for 5000 ms, after which the current was taken back to −50 mV for 5000 ms to remove the inactivation and observe the deactivating tail current. The K+ tail current through HERG channels observed during this step was allowed to stabilize under continuous bath perfusion. Cells were then superfused with drug until steady state block was achieved. Steady state was considered reached when three consecutive super-imposable current records were collected. At this point, cells were once again superfused with extracellular solution until the current amplitude returned to values close to those measured before application of drug. (1) Percent current inhibition was calculated using the following equation. (Note: PatchMaster was used to extract the peak current from the original data.) (2) The dose response curve of test compounds was plotted with % inhibition against the concentration of test compounds using Graphpad Prism 9.0, and fit the data to a log(inhibitor) vs. response—Variable slope curve.

[1] = target: T2, human HAQ STING isoform (hSTING HAQ) (Homo sapiens, UniProt Q86WV6, G230A/H232R/R293Q/R71H); assay: IFN-β mRNA level in THP1 cells (qPCR, STING agonist cellular activity); type: cell-based; settings: compound at 3.6 μM, 2 hrs, IFNβ expression normalized against GAPDH by the 2^-ΔΔCT method, DMSO = 1.0
T2 construct: THP1 cells express the naturally occurring human HAQ STING isoform (hSTING HAQ); host or cells: THP1
In short: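 THP1 cells were seeded at 9×10^5 per well, incubated overnight, then treated with compound at 3.6 μM final (0.1% DMSO control) for 2 hrs at 37 °C. IFN-β mRNA was measured by SYBR Green qPCR, normalised to GAPDH by the 2^−ΔΔCT method, in triplicate.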

T1 sequence (Q12809 whole entry): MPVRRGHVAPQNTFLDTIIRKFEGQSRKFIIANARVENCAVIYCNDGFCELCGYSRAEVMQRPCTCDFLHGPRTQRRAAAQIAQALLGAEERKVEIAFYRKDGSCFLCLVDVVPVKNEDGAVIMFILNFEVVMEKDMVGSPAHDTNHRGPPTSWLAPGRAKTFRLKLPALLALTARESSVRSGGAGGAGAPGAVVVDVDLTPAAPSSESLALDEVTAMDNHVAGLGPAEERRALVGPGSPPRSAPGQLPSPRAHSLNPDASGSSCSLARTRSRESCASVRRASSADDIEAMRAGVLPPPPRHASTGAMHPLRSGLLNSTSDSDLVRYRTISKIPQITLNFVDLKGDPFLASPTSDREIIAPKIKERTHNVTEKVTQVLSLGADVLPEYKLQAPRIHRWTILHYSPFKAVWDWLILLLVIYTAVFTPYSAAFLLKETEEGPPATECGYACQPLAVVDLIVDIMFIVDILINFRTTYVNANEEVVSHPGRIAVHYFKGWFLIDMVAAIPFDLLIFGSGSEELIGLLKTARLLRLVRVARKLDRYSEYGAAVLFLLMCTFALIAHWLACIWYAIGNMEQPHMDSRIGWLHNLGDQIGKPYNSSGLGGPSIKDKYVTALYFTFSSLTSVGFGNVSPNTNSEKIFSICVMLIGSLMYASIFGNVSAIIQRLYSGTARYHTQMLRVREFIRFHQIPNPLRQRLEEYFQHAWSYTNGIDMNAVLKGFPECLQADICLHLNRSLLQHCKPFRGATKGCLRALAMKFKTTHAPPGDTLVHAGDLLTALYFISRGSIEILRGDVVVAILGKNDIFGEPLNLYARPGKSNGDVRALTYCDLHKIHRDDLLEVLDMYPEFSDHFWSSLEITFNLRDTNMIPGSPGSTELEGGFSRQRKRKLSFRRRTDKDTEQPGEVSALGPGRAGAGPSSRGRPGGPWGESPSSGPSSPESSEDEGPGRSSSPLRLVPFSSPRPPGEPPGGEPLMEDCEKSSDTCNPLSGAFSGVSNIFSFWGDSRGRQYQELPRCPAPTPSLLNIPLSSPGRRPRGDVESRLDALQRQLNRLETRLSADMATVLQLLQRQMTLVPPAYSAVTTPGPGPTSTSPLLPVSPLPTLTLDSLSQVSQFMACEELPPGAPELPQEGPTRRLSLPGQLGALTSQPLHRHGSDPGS
T2 sequence (Q86WV6 whole entry R71H/G230A/H232R/R293Q, canonical isoform): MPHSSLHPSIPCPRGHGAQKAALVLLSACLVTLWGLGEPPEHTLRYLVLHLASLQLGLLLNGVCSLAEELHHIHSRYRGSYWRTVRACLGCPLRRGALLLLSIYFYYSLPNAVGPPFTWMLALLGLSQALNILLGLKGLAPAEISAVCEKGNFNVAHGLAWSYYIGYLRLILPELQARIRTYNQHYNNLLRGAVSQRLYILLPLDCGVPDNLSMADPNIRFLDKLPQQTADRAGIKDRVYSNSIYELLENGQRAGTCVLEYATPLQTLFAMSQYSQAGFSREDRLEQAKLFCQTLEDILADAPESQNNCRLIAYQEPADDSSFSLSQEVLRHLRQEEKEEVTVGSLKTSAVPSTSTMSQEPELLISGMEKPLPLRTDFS

Relative mRNA INFβ/GAPDH THP 1 [1]	SMILES	pIC50 (hERG channel)
7328.8	COc1cc(CN(Cc2cn3c4c(c(F)c(F)cc4c2=O)OCC3)[C@H]2CCCN(c3ccc(N)nc3)C2)ccn1 [Compound 66, (S)-6-(((1-(6-aminopyridin-3-yl)piperidin-3-yl)((2-methoxypyridin-4-yl)methyl)amino)methyl)-9,10-difluoro-2,3-dihydro-7H-[1,4]oxazino[2,3,4-ij]quinolin-7-one]	5.57
7398.9	COc1cc(CN(Cc2cn3c4c(c(F)c(F)cc4c2=O)CCC3)[C@H]2CCCN(c3ccc(N)nc3)C2)ccn1 [Compound 67, (S)-2-(((1-(6-aminopyridin-3-yl)piperidin-3-yl)((2-methoxypyridin-4-yl)methyl)amino)methyl)-8,9-difluoro-6,7-dihydro-1H,5H-pyrido[3,2,1-ij]quinolin-1-one]	5.51
9547.9	COc1cc(CN(Cc2cn3c4c(c(F)c(F)cc4c2=O)SCC3)[C@H]2CCCN(c3ccc(N)nc3)C2)ccn1 [Compound 69, 9,10-difluoro-6-({[(3S)-1-(6-aminopyridin-3-yl)hexahydropyridin-3-yl][(2-methoxypyridin-4-yl)methyl]amino}methyl)-3,7-dihydro-2H-[1,4]thiazino[2,3,4-ij]quinolin-7-one]	5.71
349.0	COCC1COc2c(F)c(F)cc3c(=O)c(CN(Cc4ccnc(OC)c4)[C@H]4CCCN(c5ccc(N)nc5)C4)cn1c23 (stereo partly drawn) [Compound 82, 6-((((S)-1-(6-aminopyridin-3-yl)piperidin-3-yl)((2-methoxypyridin-4-yl)methyl)amino)methyl)-9,10-difluoro-3-(methoxymethyl)-2,3-dihydro-7H-[1,4]oxazino[2,3,4-ij]quinolin-7-one]	5.50
